# Reference: the kinase profiling compilation of Christmann-Franck et al. (2016)
# Legend:
# Assay in all cases: radiometric filter-binding kinase assay
# [1] = tested on: AKT1 (human), P31749 [S473D]
# BRSK2 (human) = BRSK2 (human) (UniProt Q8IWQ3)
# CLK2 (human) = CLK2 (human) (UniProt P49760); details: compound 0.1 µM
# CSNK2A1 (human) = CSNK2A1 (human) (UniProt P68400)
# DAPK1 (human) = DAPK1 (human) (UniProt P53355); details: compound 0.1 µM
# DYRK1A (human) = DYRK1A (human) (UniProt Q13627)
# DYRK3 (human) = DYRK3 (human) (UniProt O43781)
# Chain of DYRK3 (human) (O43781 whole entry, looked up): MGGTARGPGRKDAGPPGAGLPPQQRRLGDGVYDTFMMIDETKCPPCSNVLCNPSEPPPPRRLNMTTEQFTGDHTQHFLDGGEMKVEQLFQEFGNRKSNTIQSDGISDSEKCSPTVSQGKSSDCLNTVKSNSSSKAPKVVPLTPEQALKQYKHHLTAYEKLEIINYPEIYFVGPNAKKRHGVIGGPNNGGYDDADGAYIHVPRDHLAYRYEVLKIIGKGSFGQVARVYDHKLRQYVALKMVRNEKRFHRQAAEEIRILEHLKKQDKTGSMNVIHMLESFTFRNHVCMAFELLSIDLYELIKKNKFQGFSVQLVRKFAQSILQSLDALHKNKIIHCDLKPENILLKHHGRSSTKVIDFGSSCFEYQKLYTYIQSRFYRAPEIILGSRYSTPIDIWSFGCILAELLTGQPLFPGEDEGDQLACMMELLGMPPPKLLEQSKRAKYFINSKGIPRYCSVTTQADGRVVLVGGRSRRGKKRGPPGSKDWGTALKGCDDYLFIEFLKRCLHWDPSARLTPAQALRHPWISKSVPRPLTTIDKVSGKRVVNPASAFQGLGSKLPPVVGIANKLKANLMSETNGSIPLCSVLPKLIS
# EPHB3 (human) = EPHB3 (human) (UniProt P54753)
# IKBKB (human) = IKBKB (human) (UniProt O14920)
# Chain of IKBKB (human) (O14920 whole entry, looked up): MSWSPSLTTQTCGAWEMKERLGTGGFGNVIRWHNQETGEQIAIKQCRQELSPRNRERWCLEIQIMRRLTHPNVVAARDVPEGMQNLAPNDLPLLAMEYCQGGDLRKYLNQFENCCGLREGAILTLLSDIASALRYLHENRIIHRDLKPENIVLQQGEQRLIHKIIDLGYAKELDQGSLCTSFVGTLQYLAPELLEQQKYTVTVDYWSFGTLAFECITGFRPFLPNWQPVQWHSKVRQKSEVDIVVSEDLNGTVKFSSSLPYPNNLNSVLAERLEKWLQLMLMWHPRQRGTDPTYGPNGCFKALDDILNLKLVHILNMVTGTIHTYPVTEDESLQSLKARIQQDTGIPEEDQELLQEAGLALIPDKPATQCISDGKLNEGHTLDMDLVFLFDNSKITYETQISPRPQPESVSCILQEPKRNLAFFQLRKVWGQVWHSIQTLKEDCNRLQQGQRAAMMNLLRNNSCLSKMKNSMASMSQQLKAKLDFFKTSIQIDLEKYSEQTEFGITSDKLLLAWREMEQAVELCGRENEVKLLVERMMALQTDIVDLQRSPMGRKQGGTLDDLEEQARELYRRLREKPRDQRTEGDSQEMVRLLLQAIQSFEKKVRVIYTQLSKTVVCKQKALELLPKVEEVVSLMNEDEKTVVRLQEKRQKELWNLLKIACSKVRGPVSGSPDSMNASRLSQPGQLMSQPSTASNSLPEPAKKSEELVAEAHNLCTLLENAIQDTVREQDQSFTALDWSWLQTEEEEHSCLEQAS
# IKBKE (human) = IKBKE (human) (UniProt Q14164)
# IRAK4 (human) = IRAK4 (human) (UniProt Q9NWZ3)
# MAP2K6 (human) = MAP2K6 (human) (UniProt P52564); details: compound 0.1 µM
# MAP3K11 (human) = MAP3K11 (human) (UniProt Q16584)
# MAP3K7 TAB1 (human) = MAP3K7 TAB1 (human) (UniProt Q15750+O43318); details: compound 0.1 µM
# MAPK11 (human) = MAPK11 (human) (UniProt Q15759)
# MAPK12 (human) = MAPK12 (human) (UniProt P53778)
# Chain of MAPK12 (human) (P53778 whole entry, looked up): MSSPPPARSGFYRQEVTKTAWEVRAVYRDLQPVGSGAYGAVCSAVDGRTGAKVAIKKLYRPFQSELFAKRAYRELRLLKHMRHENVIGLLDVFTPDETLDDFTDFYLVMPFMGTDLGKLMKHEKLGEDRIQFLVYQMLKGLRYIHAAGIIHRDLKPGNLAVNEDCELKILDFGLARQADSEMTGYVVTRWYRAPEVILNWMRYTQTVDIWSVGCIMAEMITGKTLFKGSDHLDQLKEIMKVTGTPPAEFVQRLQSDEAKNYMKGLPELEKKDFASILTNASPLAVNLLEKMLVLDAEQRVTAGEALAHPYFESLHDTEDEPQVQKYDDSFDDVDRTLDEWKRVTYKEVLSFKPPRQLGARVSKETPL
# MAPK14 (human) = MAPK14 (human) (UniProt Q16539)
# MAPK3 (human) = MAPK3 (human) (UniProt P27361)
# MAPK8 (human) = MAPK8 (human) (UniProt P45983)
# MAPKAPK3 (human) = MAPKAPK3 (human) (UniProt Q16644); details: compound 0.1 µM
# MAPKAPK5 (human) = MAPKAPK5 (human) (UniProt Q8IW41)
# MKNK2 (human) = MKNK2 (human) (UniProt Q9HBH9)
# Chain of MKNK2 (human) (Q9HBH9 whole entry, looked up): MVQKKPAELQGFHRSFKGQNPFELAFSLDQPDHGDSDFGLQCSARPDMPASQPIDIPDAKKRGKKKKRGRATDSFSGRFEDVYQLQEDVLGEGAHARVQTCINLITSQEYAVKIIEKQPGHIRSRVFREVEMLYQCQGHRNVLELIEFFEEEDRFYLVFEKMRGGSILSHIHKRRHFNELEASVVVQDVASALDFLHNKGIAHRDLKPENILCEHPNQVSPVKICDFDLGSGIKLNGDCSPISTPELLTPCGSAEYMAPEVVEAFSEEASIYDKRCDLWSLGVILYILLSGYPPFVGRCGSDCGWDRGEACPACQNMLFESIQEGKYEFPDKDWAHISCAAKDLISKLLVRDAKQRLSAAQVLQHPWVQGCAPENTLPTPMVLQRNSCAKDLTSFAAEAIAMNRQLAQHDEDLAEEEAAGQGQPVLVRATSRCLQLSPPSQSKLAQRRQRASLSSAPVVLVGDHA
# NTRK1 (human) = NTRK1 (human) (UniProt P04629); details: compound 0.1 µM
# PAK4 (human) = PAK4 (human) (UniProt O96013)
# PIM1 (human) = PIM1 (human) (UniProt P11309)
# Chain of PIM1 (human) (P11309 whole entry, looked up): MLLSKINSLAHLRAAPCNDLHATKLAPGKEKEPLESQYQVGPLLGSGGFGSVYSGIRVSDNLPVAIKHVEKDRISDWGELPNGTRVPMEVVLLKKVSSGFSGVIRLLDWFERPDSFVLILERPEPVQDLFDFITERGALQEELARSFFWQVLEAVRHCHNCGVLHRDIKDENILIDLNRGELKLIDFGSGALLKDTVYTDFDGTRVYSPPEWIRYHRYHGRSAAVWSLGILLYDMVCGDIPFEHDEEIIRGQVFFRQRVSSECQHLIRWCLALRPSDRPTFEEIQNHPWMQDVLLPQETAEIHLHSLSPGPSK
# PIM2 (human) = PIM2 (human) (UniProt Q9P1W9)
# PIM3 (human) = PIM3 (human) (UniProt Q86V86)
# PLK1 (human) = PLK1 (human) (UniProt P53350)
# ROCK2 (rat) = details: accession and sequence are those of the human protein
# RPS6KA1 KD1 KD2 (human) = RPS6KA1 KD1 KD2 (human) (UniProt Q15418)
# Chain of RPS6KA1 KD1 KD2 (human) (Q15418 whole entry, looked up): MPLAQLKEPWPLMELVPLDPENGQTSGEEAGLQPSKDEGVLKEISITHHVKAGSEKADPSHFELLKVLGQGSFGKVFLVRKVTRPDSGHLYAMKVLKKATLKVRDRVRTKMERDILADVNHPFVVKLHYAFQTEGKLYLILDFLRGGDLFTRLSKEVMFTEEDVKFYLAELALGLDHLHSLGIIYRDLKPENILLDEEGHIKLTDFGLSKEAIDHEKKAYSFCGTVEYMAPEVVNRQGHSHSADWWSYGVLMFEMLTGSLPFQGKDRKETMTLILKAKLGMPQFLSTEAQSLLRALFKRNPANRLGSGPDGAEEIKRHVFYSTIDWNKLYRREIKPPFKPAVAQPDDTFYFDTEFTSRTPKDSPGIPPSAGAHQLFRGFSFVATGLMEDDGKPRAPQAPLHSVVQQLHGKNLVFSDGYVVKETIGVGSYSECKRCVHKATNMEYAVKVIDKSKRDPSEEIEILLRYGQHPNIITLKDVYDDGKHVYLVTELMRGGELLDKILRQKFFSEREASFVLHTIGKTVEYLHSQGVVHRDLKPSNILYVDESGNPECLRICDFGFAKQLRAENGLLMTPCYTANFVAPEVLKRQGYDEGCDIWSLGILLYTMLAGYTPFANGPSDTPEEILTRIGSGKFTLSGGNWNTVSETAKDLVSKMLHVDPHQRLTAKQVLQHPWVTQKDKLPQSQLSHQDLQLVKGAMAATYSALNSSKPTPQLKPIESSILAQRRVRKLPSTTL
# RPS6KA3 KD1 KD2 (human) = RPS6KA3 KD1 KD2 (human) (UniProt P51812)
# [2] = tested on: RPS6KB1 (human), P23443 [T412E]
# Chain of RPS6KB1 (human), P23443 [T412E] (P23443 whole entry T412E, looked up): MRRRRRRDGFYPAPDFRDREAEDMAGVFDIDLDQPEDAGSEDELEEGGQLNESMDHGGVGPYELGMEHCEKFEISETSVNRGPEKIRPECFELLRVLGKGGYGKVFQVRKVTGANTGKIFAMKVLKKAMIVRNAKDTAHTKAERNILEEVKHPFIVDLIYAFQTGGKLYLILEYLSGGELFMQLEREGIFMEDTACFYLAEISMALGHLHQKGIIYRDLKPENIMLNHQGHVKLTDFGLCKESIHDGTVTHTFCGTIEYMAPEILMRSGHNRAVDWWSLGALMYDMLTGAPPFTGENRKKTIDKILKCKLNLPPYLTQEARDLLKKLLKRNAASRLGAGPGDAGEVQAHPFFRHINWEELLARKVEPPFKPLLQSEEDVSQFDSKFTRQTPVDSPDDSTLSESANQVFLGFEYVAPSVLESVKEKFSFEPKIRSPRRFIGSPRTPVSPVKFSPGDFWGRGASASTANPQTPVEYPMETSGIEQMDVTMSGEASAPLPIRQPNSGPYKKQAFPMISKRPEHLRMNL
# [3] = tested on: SGK1 (human), O00141 [S422D]
# STK3 (human) = STK3 (human) (UniProt Q13188)
# Chain of STK3 (human) (Q13188 whole entry, looked up): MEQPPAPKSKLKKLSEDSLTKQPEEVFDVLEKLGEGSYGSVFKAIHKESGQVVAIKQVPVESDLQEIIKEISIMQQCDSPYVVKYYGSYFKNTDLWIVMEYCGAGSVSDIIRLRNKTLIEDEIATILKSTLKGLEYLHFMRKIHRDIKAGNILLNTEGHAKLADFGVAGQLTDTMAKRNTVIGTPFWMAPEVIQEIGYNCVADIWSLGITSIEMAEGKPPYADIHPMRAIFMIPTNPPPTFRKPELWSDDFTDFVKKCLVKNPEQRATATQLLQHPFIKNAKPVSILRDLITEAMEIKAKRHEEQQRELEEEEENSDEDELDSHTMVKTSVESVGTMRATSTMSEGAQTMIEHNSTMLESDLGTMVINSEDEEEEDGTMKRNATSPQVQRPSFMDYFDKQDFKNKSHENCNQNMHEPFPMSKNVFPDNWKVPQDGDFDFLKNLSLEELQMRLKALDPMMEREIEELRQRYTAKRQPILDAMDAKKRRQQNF
# TBK1 (human) = TBK1 (human) (UniProt Q9UHD2)
# Chain of AKT1 (human), P31749 [S473D] (P31749 whole entry S473D, looked up): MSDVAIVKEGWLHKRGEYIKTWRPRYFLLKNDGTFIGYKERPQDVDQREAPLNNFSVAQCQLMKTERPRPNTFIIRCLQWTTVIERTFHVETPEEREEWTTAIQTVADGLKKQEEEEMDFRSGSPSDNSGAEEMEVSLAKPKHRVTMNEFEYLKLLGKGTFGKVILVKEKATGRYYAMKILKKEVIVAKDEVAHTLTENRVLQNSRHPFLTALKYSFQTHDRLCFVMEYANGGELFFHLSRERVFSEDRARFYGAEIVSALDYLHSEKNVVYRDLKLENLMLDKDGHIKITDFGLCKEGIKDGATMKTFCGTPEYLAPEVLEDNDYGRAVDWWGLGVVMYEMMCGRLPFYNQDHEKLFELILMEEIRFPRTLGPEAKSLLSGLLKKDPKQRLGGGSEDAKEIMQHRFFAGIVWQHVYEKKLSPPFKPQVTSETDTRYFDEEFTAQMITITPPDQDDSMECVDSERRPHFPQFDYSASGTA
smiles,measurement,setting,value
O=C(O)c1ccc(-c2c[nH]c3ncc(-c4ccccc4)cc23)cc1C1CCCC1,residual activity,[1]; compound 0.1 µM,104%
same,residual activity,[1]; compound 1.0 µM,72%
same,residual activity,[1]; compound 10.0 µM,57%
same,residual activity,BRSK2 (human); compound 0.1 µM,86%
same,residual activity,BRSK2 (human); compound 1.0 µM,61%
same,residual activity,BRSK2 (human); compound 10.0 µM,20%
same,residual activity,CLK2 (human),65%
same,residual activity,CSNK2A1 (human); compound 0.1 µM,96%
same,residual activity,CSNK2A1 (human); compound 10.0 µM,46%
same,residual activity,DAPK1 (human),87%
same,residual activity,DYRK1A (human); compound 0.1 µM,79%
same,residual activity,DYRK1A (human); compound 1.0 µM,47%
same,residual activity,DYRK1A (human); compound 10.0 µM,8%
same,residual activity,DYRK3 (human); compound 0.1 µM,79%
same,residual activity,DYRK3 (human); compound 1.0 µM,57%
same,residual activity,DYRK3 (human); compound 10.0 µM,17%
same,residual activity,EPHB3 (human); compound 0.1 µM,108%
same,residual activity,EPHB3 (human); compound 10.0 µM,101%
same,residual activity,IKBKB (human); compound 0.1 µM,94%
same,residual activity,IKBKB (human); compound 1.0 µM,97%
same,residual activity,IKBKB (human); compound 10.0 µM,64%
same,residual activity,IKBKE (human); compound 0.1 µM,91%
same,residual activity,IKBKE (human); compound 1.0 µM,44%
same,residual activity,IKBKE (human); compound 10.0 µM,14%
same,residual activity,IRAK4 (human); compound 0.1 µM,20%
same,residual activity,IRAK4 (human); compound 1.0 µM,12%
same,residual activity,IRAK4 (human); compound 10.0 µM,12%
same,residual activity,MAP2K6 (human),97%
same,residual activity,MAP3K11 (human); compound 0.1 µM,75%
same,residual activity,MAP3K11 (human); compound 1.0 µM,33%
same,residual activity,MAP3K11 (human); compound 10.0 µM,5%
same,residual activity,MAP3K7 TAB1 (human),115%
same,residual activity,MAPK11 (human); compound 0.1 µM,109%
same,residual activity,MAPK11 (human); compound 1.0 µM,112%
same,residual activity,MAPK11 (human); compound 10.0 µM,71%
same,residual activity,MAPK12 (human); compound 0.1 µM,106%
same,residual activity,MAPK12 (human); compound 1.0 µM,104%
same,residual activity,MAPK12 (human); compound 10.0 µM,35%
same,residual activity,MAPK14 (human); compound 0.1 µM,94%
same,residual activity,MAPK14 (human); compound 1.0 µM,119%
same,residual activity,MAPK14 (human); compound 10.0 µM,106%
same,residual activity,MAPK3 (human); compound 0.1 µM,105%
same,residual activity,MAPK3 (human); compound 1.0 µM,75%
same,residual activity,MAPK3 (human); compound 10.0 µM,39%
same,residual activity,MAPK8 (human); compound 0.1 µM,81%
same,residual activity,MAPK8 (human); compound 1.0 µM,74%
same,residual activity,MAPK8 (human); compound 10.0 µM,39%
same,residual activity,MAPKAPK3 (human),101%
same,residual activity,MAPKAPK5 (human); compound 0.1 µM,107%
same,residual activity,MAPKAPK5 (human); compound 1.0 µM,77%
same,residual activity,MAPKAPK5 (human); compound 10.0 µM,73%
same,residual activity,MKNK2 (human); compound 0.1 µM,68%
same,residual activity,MKNK2 (human); compound 1.0 µM,14%
same,residual activity,MKNK2 (human); compound 10.0 µM,4%
same,residual activity,NTRK1 (human),29%
same,residual activity,PAK4 (human); compound 0.1 µM,96%
same,residual activity,PAK4 (human); compound 1.0 µM,85%
same,residual activity,PAK4 (human); compound 10.0 µM,39%
same,residual activity,PIM1 (human); compound 0.1 µM,91%
same,residual activity,PIM1 (human); compound 1.0 µM,62%
same,residual activity,PIM1 (human); compound 10.0 µM,26%
same,residual activity,PIM2 (human); compound 0.1 µM,104%
same,residual activity,PIM2 (human); compound 1.0 µM,92%
same,residual activity,PIM2 (human); compound 10.0 µM,75%
same,residual activity,PIM3 (human); compound 0.1 µM,90%
same,residual activity,PIM3 (human); compound 1.0 µM,86%
same,residual activity,PIM3 (human); compound 10.0 µM,45%
same,residual activity,PLK1 (human); compound 0.1 µM,93%
same,residual activity,PLK1 (human); compound 1.0 µM,31%
same,residual activity,PLK1 (human); compound 10.0 µM,5%
same,residual activity,ROCK2 (rat); compound 0.1 µM,84%
same,residual activity,ROCK2 (rat); compound 1.0 µM,59%
same,residual activity,ROCK2 (rat); compound 10.0 µM,33%
same,residual activity,RPS6KA1 KD1 KD2 (human); compound 0.1 µM,102%
same,residual activity,RPS6KA1 KD1 KD2 (human); compound 1.0 µM,93%
same,residual activity,RPS6KA1 KD1 KD2 (human); compound 10.0 µM,38%
same,residual activity,RPS6KA3 KD1 KD2 (human); compound 0.1 µM,96%
same,residual activity,RPS6KA3 KD1 KD2 (human); compound 1.0 µM,97%
same,residual activity,[2]; compound 0.1 µM,100%
same,residual activity,[2]; compound 1.0 µM,74%
same,residual activity,[2]; compound 10.0 µM,24%
same,residual activity,[3]; compound 0.1 µM,56%
same,residual activity,[3]; compound 1.0 µM,9%
same,residual activity,[3]; compound 10.0 µM,1%
same,residual activity,STK3 (human); compound 0.1 µM,68%
same,residual activity,STK3 (human); compound 1.0 µM,22%
same,residual activity,STK3 (human); compound 10.0 µM,4%
same,residual activity,TBK1 (human); compound 0.1 µM,86%
same,residual activity,TBK1 (human); compound 1.0 µM,70%
same,residual activity,TBK1 (human); compound 10.0 µM,27%
